# Several values for one entry are separate records, joined by “and”; a condition that tells them apart may be missing. Equal values may be shown once. Inconclusive results and toxic doses are left out.
# Test system: BDF1 mice, P388 leukemia ip, median survival T/C
# Test: NCI In Vivo Anticancer Drug Screen. Data for tumor model P388 Leukemia (intraperitoneal) in B6D2F1 (BDF1) mice
# Details: endpoint: median survival time, higher = longer survival
# Outline: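 Compound-treated tumour-bearing mice were compared with vehicle-treated controls. Survival was recorded, and the value is the treated-group measurement divided by the control-group measurement (T/C).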
# [1] = dose: 25.0 mg/kg/injection, schedule: Q01DX009 (ip), vehicle: saline with Tween-80
# [2] = dose: 100.0 mg/kg/injection, schedule: Q04DX003 (ip), vehicle: Klucel (hydroxypropylcellulose) (HPC)
# [3] = dose: 100.0 mg/kg/injection, schedule: Q01DX009 (ip), vehicle: saline with Tween-80
# [4] = dose: 200.0 mg/kg/injection, schedule: Q01DX009 (ip), vehicle: saline with Tween-80
# [5] = dose: 400.0 mg/kg/injection, schedule: Q01DX009 (ip), vehicle: saline with Tween-80
# [6] = dose: 50.0 mg/kg/injection, schedule: Q01DX009 (ip), vehicle: saline
# [7] = dose: 50.0 mg/kg/injection, schedule: Q04DX003 (ip), vehicle: saline
# [8] = dose: 100.0 mg/kg/injection, schedule: Q04DX003 (ip), vehicle: saline
# [9] = dose: 200.0 mg/kg/injection, schedule: Q04DX003 (ip), vehicle: saline
# [10] = dose: 12.5 mg/kg/injection, schedule: Q01DX009 (ip), vehicle: saline with Tween-80
# [11] = dose: 50.0 mg/kg/injection, schedule: Q01DX009 (ip), vehicle: saline with Tween-80
# [12] = dose: 25.0 mg/kg/injection, schedule: Q04DX003 (ip), vehicle: saline
# [13] = dose: 100.0 mg/kg/injection, schedule: Q04DX003 (ip), vehicle: saline sonified
# [14] = dose: 200.0 mg/kg/injection, schedule: Q04DX003 (ip), vehicle: saline sonified
# [15] = dose: 400.0 mg/kg/injection, schedule: Q04DX003 (ip), vehicle: saline sonified
# [16] = dose: 25.0 mg/kg/injection, schedule: Q01DX009 (ip), vehicle: saline
# [17] = dose: 100.0 mg/kg/injection, schedule: Q04DX003 (ip), vehicle: saline with Tween-80
# [18] = dose: 200.0 mg/kg/injection, schedule: Q04DX003 (ip), vehicle: saline with Tween-80
# [19] = dose: 400.0 mg/kg/injection, schedule: Q04DX003 (ip), vehicle: saline with Tween-80
smiles,measurement,setting,value
Oc1cc(N2CC2)c(O)cc1N1CC1,T/C,"dose: 0.02 mg/kg/injection, schedule: Q01DX009 (ip), vehicle: saline",150 % of control
same,T/C,"dose: 0.03 mg/kg/injection, schedule: Q01DX009 (ip), vehicle: saline",154 % of control
same,T/C,"dose: 0.1 mg/kg/injection, schedule: Q01DX009 (ip), vehicle: saline",171 % of control
same,T/C,"dose: 0.13 mg/kg/injection, schedule: Q01DX009 (ip), vehicle: saline",200 % of control and 213 % of control
same,T/C,"dose: 0.2 mg/kg/injection, schedule: Q01DX009 (ip), vehicle: saline",186 % of control and 204 % of control
same,T/C,"dose: 0.3 mg/kg/injection, schedule: Q01DX009 (ip), vehicle: saline",204 % of control
same,T/C,"dose: 0.44 mg/kg/injection, schedule: Q01DX009 (ip), vehicle: saline",200 % of control
same,T/C,"dose: 0.47 mg/kg/injection, schedule: Q04DX003 (ip), vehicle: saline",150 % of control
same,T/C,"dose: 0.68 mg/kg/injection, schedule: Q01DX009 (ip), vehicle: saline",263 % of control
same,T/C,"dose: 0.72 mg/kg/injection, schedule: Q04DX003 (ip), vehicle: saline",200 % of control
same,T/C,"dose: 1.0 mg/kg/injection, schedule: Q01DX009 (ip), vehicle: saline",268 % of control
same,T/C,"dose: 1.08 mg/kg/injection, schedule: Q04DX003 (ip), vehicle: saline",220 % of control
same,T/C,"dose: 1.65 mg/kg/injection, schedule: Q04DX003 (ip), vehicle: saline",225 % of control
same,T/C,"dose: 2.5 mg/kg/injection, schedule: Q04DX003 (ip), vehicle: saline",225 % of control and 150 % of control
same,T/C,"dose: 3.75 mg/kg/injection, schedule: Q04DX003 (ip), vehicle: saline",90 % of control
same,T/C,"dose: 16.0 micrograms/kg/injection, schedule: Q01DX009 (ip), vehicle: saline",105 % of control
same,T/C,"dose: 25.0 micrograms/kg/injection, schedule: Q01DX009 (ip), vehicle: saline",102 % of control
same,T/C,"dose: 38.0 micrograms/kg/injection, schedule: Q01DX009 (ip), vehicle: Klucel (hydroxypropylcellulose) (HPC)",190 % of control
same,T/C,"dose: 58.0 micrograms/kg/injection, schedule: Q01DX009 (ip), vehicle: Klucel (hydroxypropylcellulose) (HPC)",200 % of control
same,T/C,"dose: 88.0 micrograms/kg/injection, schedule: Q01DX009 (ip), vehicle: saline",179 % of control
same,T/C,"dose: 132.0 micrograms/kg/injection, schedule: Q01DX009 (ip), vehicle: saline",120 % of control
Clc1c(CI)ccc(CI)c1Cl,T/C,"dose: 11.0 mg/kg/injection, schedule: Q04DX003 (ip), vehicle: Klucel (hydroxypropylcellulose) (HPC)",100 % of control
same,T/C,"dose: 12.5 mg/kg/injection, schedule: Q01DX009 (ip), vehicle: saline sonified",113 % of control
same,T/C,"dose: 16.5 mg/kg/injection, schedule: Q01DX009 (ip), vehicle: saline with Tween-80",90 % of control
same,T/C,"dose: 16.5 mg/kg/injection, schedule: Q04DX003 (ip), vehicle: Klucel (hydroxypropylcellulose) (HPC)",100 % of control
same,T/C,"dose: 16.5 mg/kg/injection, schedule: Q04DX003 (ip), vehicle: saline sonified",122 % of control
same,T/C,[1],90 % of control
same,T/C,"dose: 25.0 mg/kg/injection, schedule: Q04DX003 (ip), vehicle: Klucel (hydroxypropylcellulose) (HPC)",109 % of control
same,T/C,"dose: 37.5 mg/kg/injection, schedule: Q04DX003 (ip), vehicle: Klucel (hydroxypropylcellulose) (HPC)",109 % of control
same,T/C,"dose: 50.0 mg/kg/injection, schedule: Q01DX009 (ip), vehicle: saline sonified",118 % of control
same,T/C,"dose: 50.0 mg/kg/injection, schedule: Q04DX003 (ip), vehicle: Klucel (hydroxypropylcellulose) (HPC)",110 % of control
same,T/C,[2],120 % of control
c1ccc2cc3nc4cc5ccccc5cc4nc3cc2c1,T/C,[3],99 % of control
same,T/C,[4],100 % of control
same,T/C,[5],100 % of control
Cc1ccccc1OCCCCCl,T/C,[3],115 % of control
same,T/C,[4],107 % of control
same,T/C,[5],115 % of control
N=c1cc(-c2ccc(Cl)cc2)ss1,T/C,[6],117 % of control
same,T/C,[7],97 % of control
same,T/C,[8],105 % of control
same,T/C,[9],108 % of control
CCC(=O)NC(C(=O)NC(C(=O)NC(CC(C)C)C(O)CC(=O)NC(C)C(=O)NC(CC(C)C)C(O)CC(=O)O)C(C)C)C(C)C (configuration not stated),T/C,[10],100 % of control
same,T/C,[1],109 % of control
same,T/C,[11],109 % of control and 114 % of control
same,T/C,[3],94 % of control
CCOC(=O)C(C)(Br)C(=O)OCC,T/C,[12],109 % of control
same,T/C,[7],100 % of control
same,T/C,[8],113 % of control
CCCCCCCCCCCCS(=O)(=O)O (tested in a mixture with another compound),T/C,[2],95 % of control
same,T/C,"dose: 200.0 mg/kg/injection, schedule: Q04DX003 (ip), vehicle: Klucel (hydroxypropylcellulose) (HPC)",90 % of control
O=C1CCSC(=O)N1SC(Cl)(Cl)Cl,T/C,"dose: 12.0 mg/kg/injection, schedule: Q01DX009 (ip), vehicle: saline with Tween-80",120 % of control
same,T/C,[1],110 % of control
same,T/C,[11],100 % of control
C=CCn1nnc(-c2ccccc2)n1,T/C,[11],117 % of control
same,T/C,[3],117 % of control
same,T/C,[4],119 % of control
CC1CC2C(CC1O)C2(C)C (configuration not stated),T/C,[10],100 % of control
same,T/C,[1],95 % of control
same,T/C,[11],109 % of control
same,T/C,[13],111 % of control
same,T/C,[14],111 % of control
same,T/C,[15],100 % of control
O=S1(=O)CC(Cl)(Br)C1 (tested in a mixture with another compound),T/C,"dose: 100.0 mg/kg/injection, schedule: Q01DX009 (ip), vehicle: Klucel (hydroxypropylcellulose) (HPC)",91 % of control
CCOC(=O)CN1C(=O)S/C(=C/c2ccc([N+](=O)[O-])o2)C1=O,T/C,"dose: 100.0 mg/kg/injection, schedule: Q04DX002 (ip), vehicle: saline with Tween-80",94 % of control
same,T/C,"dose: 200.0 mg/kg/injection, schedule: Q04DX002 (ip), vehicle: saline with Tween-80",105 % of control
O=[N+]([O-])/C=C/c1ccc(O)cc1,T/C,"dose: 6.25 mg/kg/injection, schedule: Q01DX009 (ip), vehicle: saline with Tween-80",100 % of control
same,T/C,[10],102 % of control
same,T/C,[1],110 % of control
same,T/C,[11],107 % of control
COc1ccc(CC2c3cc(OC)c(OC)cc3CCN2C(C)=O)cc1OC (configuration not stated),T/C,"dose: 50.0 mg/kg/injection, schedule: Q01DX005 (ip), vehicle: saline with Tween-80",90 % of control
same,T/C,"dose: 200.0 mg/kg/injection, schedule: Q01DX005 (ip), vehicle: saline with Tween-80",88 % of control
Cc1cc(=O)[nH]o1,T/C,[11],108 % of control
same,T/C,[3],103 % of control
same,T/C,[4],103 % of control
same,T/C,[5],113 % of control
CN1CCN(C(=O)N2c3ccccc3Sc3ccccc32)CC1,T/C,"dose: 12.5 mg/kg/injection, schedule: Q01DX009 (ip), vehicle: saline",100 % of control
same,T/C,[16],110 % of control
same,T/C,[6],100 % of control
same,T/C,[9],100 % of control
COc1ccc(C(=O)C(C)Br)c(OCc2ccccc2)c1OC (configuration not stated),T/C,[10],100 % of control
same,T/C,[1],95 % of control
same,T/C,[11],100 % of control
same,T/C,[3],90 % of control
same,T/C,[17],95 % of control
same,T/C,[4],95 % of control
same,T/C,[18],114 % of control
same,T/C,[19],104 % of control
Nc1nc2c(ncn2C2OC(CO)C(O)C2O)c(=O)[nH]1 (configuration not stated),T/C,[17],157 % of control
CCS(=O)(=O)CC,T/C,[13],95 % of control
same,T/C,[14],100 % of control
same,T/C,[15],100 % of control
C/C(=N\[N+](C)(C)C)c1cccc(C)n1,T/C,[16],100 % of control
same,T/C,[12],108 % of control
same,T/C,"dose: 33.0 mg/kg/injection, schedule: Q04DX003 (ip), vehicle: saline with Tween-80",100 % of control
same,T/C,"dose: 33.0 mg/kg/injection, schedule: Q04DX003 (ip), vehicle: saline",104 % of control
same,T/C,[6],95 % of control
same,T/C,"dose: 50.0 mg/kg/injection, schedule: Q04DX003 (ip), vehicle: saline with Tween-80",100 % of control
same,T/C,[7],95 % of control
same,T/C,"dose: 75.0 mg/kg/injection, schedule: Q04DX003 (ip), vehicle: saline with Tween-80",100 % of control
same,T/C,"dose: 75.0 mg/kg/injection, schedule: Q04DX003 (ip), vehicle: saline",100 % of control
same,T/C,[8],108 % of control
CCOC(=O)C(Cc1ccccc1Cl)(NC(C)=O)C(=O)OCC,T/C,[3],100 % of control
same,T/C,[17],90 % of control
same,T/C,[18],100 % of control
same,T/C,[5],90 % of control
same,T/C,[19],104 % of control

# From PubChem BioAssay AID328 (DTP/NCI, 2004)
